From patent US9539307B2, “Compositions and methods for treating amyotrophic lateral sclerosis” (THE RESEARCH INSTITUTE AT NATIONWIDE CHILDREN'S HOSPITAL, priority 2012, dated 2017) come the findings set out here.

Series [1] relates to PRF1. The experiment in a line: Western blot of PRF1 knockdown in human astrocytes. Type of series: cell-based. The source says:
(§1) To knockdown PRF1 and GZMB levels in astrocytes, sequences from the RNAi Consortium lentiviral shRNA library were screened and relevant plasmids purchased from Open Biosystems. Clones TRCN0000077206 ([…] (SEQ ID NO: 19)) and TRCN0000032742 ([…] (SEQ ID NO: 20)) were used to target PRF1 and GZMB in mouse astrocytes, respectively. Clones TRCN0000007942 ([…] (SEQ ID NO: 21)) and TRCN0000006448 ([…] (SEQ ID NO: 22)) were used to knockdown PRF1 and GZMB in human astrocytes, respectively. Scrambled shRNA were used as controls for PRF1 ([…] (SEQ ID NO: 23)) and for GZMB ([…] (SEQ ID NO: 24)). […] Prior to addition to astrocytes, viral titer was obtained using Quick-titer lentivirus quantification kit follow manufacture's directions (CellBiolabs Inc, San Diego, Calif., USA).
(§2) Based on the levels of knockdown efficiency evaluated by western blot analysis, clones TRCN0000077206 ([…] (SEQ ID NO: 45)) and TRCN0000007942 ([…] (SEQ ID NO: 46)) were chosen to target PRF1 in mouse and human astrocytes, respectively. […]
(§3) Crude protein cell lysates were obtained using the Tissue Protein Extracting Reagent (Pierce, Rockford, Ill.) following manufacture recommendations. […] Bound primary antibody was detected by horseradish peroxidase conjugated secondary antibody (Jackson ImmunoResearch, West Grove, Pa.) followed by chemiluminescence using ECLTM Western Blotting Detection Reagents (GE Healthcare).
In general terms: A western blot detects proteins with antibodies after separation by electrophoresis.

The test system of series [2] is GZMB. Briefly: Western blot of GZMB knockdown in human astrocytes. In kind it is cell-based.
From the text: as §1, §2, §3

With “ACCTGAATCATGGCCACCTAA (chemistry not given here) [SEQ ID NO: 1]”, the PRF1 expression result in series [1] was “efficiently ablate”. “CATTGTCTCCTATGGACGAAA (expressed or natural sequence) [SEQ ID NO: 2]”: the GZMB expression entry in series [2] is on record as “efficiently ablate”.
